Assay results reported in paper PMC4894406, “Results of an abbreviated phase-II study with the Akt Inhibitor MK-2206 in Patients with Advanced Biliary Cancer” (Scientific Reports, 2015).
Where “and” joins values, the source holds several entries; their conditions need not be identical. Equal values may be shown once. Read-outs that look alike come from different tables or passages of the source.

How the values were obtained:
breast cancer = system: breast cancer; design: method as in PMID 24252402; conditions: 48-hr plasma concentration, patients with breast cancer; cited from earlier work
human Akt (Akt-2) = conditions: cited from earlier work
[1] = Plasma pharmacokinetics in biliary cancer patients (LC-MS/MS, non-compartmental); assay type: in vivo, human; conditions: for AUC(0-t): read-out: AUC0–96; for Vd/F: read-out: Vz/F; for k el: read-out: λz (converted)
Protocol: Plasma samples were collected from all patients at Week 1 of Cycle 1 immediately prior to dose administration, and at 30 min, 1, 2, 3, 4, 6, 8, 24, 48, and 96 hours after dose administration. The 24, 48 and 96-hour samples were collected on the mornings of days 2, 3 and 5 within 4 hours of the target time (e.g. 24 ± 4, 48 ± 4, and 96 ± 4 hours). Plasma samples were also collected immediately prior to the oral intake of MK-2206 tablet(s) on days 8, 15 and 29 (i.e. Cycle 2, Day 1) so that trough pre-dose levels of MK-2206 could be determined in the following studies. The plasma levels of MK-2206 were evaluated using quantitative liquid chromatography/tandem mass spectrometry (LC-MS/MS) at Merck & Co. Non-compartmental PK parameters were determined for MK-2206 using Phoenix WinNonlin (v6.3, Pharsight, Mountain View, CA).

human Akt (Akt-3) = conditions: cited from earlier work
[2] = OSU Trial, 7 subjects (subject 1004 excluded), BSA-adjusted
[3] = OSU Trial, 7 subjects (subject 1004 excluded), first dose 200 mg
[4] = human, plasma, po, 200 mg, subject 1001, first dose 200 mg oral
[5] = human, plasma, po, 200 mg, subject 1002, first dose 200 mg oral
[6] = human, plasma, po, 200 mg, subject 1003, first dose 200 mg oral
[7] = human, plasma, po, 200 mg, subject 1004, first dose 200 mg oral
[8] = human, plasma, po, 200 mg, subject 1005, first dose 200 mg oral
[9] = human, plasma, po, 200 mg, subject 1007, first dose 200 mg oral
[10] = human, plasma, po, 200 mg, subject 2006, first dose 200 mg oral
[11] = human, plasma, po, 200 mg, subject 2008, first dose 200 mg oral

In the case of `NC1(c2ccc(-c3nc4ccn5c(=O)[nH]nc5c4cc3-c3ccccc3)cc2)CCC1` [MK-2206], the “plasma concentration reported to be effective” value (breast cancer) is listed as no less than 22.7 ng/mL, the IC50 (human Akt (Akt-2)) is listed as 12 nM and the “CL/F/m^2 (BSA-adjusted CL/F)” value [1, 2] is listed as 16.5 +/− 7.2 L/hr/m^2 and 16.5±7.2 L/hr/m^2. The “Vz/F/m^2” value [1, 2] was 1521±931 L/m^2, the “Cmax (average)” value [1, 3] was 114 ng/mL and the “Tmax (average)” value [1, 3] was 6.0 ± 1.6 h. The concentration at 48 h ([1]; human, plasma, oral, 200 mg, 6 of 8 patients, read-out: 48-hr plasma concentration) was > 22.7 ng/mL and > 56.8 nM, the half-life ([1]; human, plasma, oral, 200 mg, OSU Trial, 7 subjects (subject 1004 excluded), first dose 200 mg, read-out: Half life (average) (converted)) was 63.5 ± 21.2 h and the concentration at 8 day ([1]; human, plasma, oral, 200 mg, day 8, 200 mg weekly, read-out: trough pre-dose average plasma concentration) was 14.7 ng/mL. The concentration at 15 day ([1]; human, plasma, oral, 200 mg, day 15, 200 mg weekly, read-out: trough pre-dose average plasma concentration) was 14.4 ng/mL, the concentration at 48 h ([1]; human, plasma, oral, 200 mg, one of the other two patients, read-out: Plasma concentration measured at 48 hours) was 18.5 ng/mL and the concentration at 48 h ([1]; human, plasma, oral, 200 mg, subject 1004, read-out: Plasma concentration measured at 48 hours) was 5.06 ng/mL. The Tmax ([1]; human, plasma, po, 200 mg, eight patients, first dose 200 mg oral, read-out: Tmax, range) was 4 to 8 h, the half-life ([1]; human, plasma, po, 200 mg, eight patients, first dose 200 mg oral, read-out: median terminal elimination half-life (converted)) was 58 h and the Tmax ([1]; human, plasma, po, 200 mg, eight patients, first dose 200 mg oral, read-out: median time to peak observed plasma concentrations (Tmax)) was 6 h. It also gave a half-life ([1]; human, plasma, po, 200 mg, eight patients, first dose 200 mg oral, read-out: terminal elimination half-life, range) of 34 to 88 h, a Cmax [1, 4] of 106 ng/mL and an AUC(0-t) [1, 4] of 3320 ng·h/mL. For the same compound, the half-life ([1]; human, plasma, po, 200 mg, subject 1001, first dose 200 mg oral, read-out: Half-life (converted)) was 53.3 h, the Tmax ([1]; human, plasma, po, 200 mg, subject 1001, first dose 200 mg oral, read-out: Tmax) was 4 h and the Vd/F [1, 4] was 3270 L. It also gave a k el [1, 4] of 3.61e-06 s⁻¹, a Cmax [1, 5] of 111 ng/mL and an AUC(0-t) [1, 5] of 6850 ng·h/mL. The half-life ([1]; human, plasma, po, 200 mg, subject 1002, first dose 200 mg oral, read-out: Half-life (converted)) was 80.4 h, the Tmax ([1]; human, plasma, po, 200 mg, subject 1002, first dose 200 mg oral, read-out: Tmax) was 6 h and the Vd/F [1, 5] was 1870 L. For the same compound, the k el [1, 5] was 2.5e-06 s⁻¹, the Cmax [1, 6] was 176 ng/mL and the AUC(0-t) [1, 6] was 8450 ng·h/mL. The half-life ([1]; human, plasma, po, 200 mg, subject 1003, first dose 200 mg oral, read-out: Half-life (converted)) was 33.8 h, the Tmax ([1]; human, plasma, po, 200 mg, subject 1003, first dose 200 mg oral, read-out: Tmax) was 6 h and the Vd/F [1, 6] was 989 L. For the same compound, the k el [1, 6] was 5.83e-06 s⁻¹, the Cmax [1, 7] was 11.1 ng/mL and the AUC(0-t) [1, 7] was 531 ng·h/mL. The half-life ([1]; human, plasma, po, 200 mg, subject 1004, first dose 200 mg oral, read-out: Half-life (converted)) was 62.5 h, the Tmax ([1]; human, plasma, po, 200 mg, subject 1004, first dose 200 mg oral, read-out: Tmax) was 8 h and the Vd/F [1, 7] was 22200 L. For the same compound, the k el [1, 7] was 3.06e-06 s⁻¹, the Cmax [1, 8] was 108 ng/mL and the AUC(0-t) [1, 8] was 6020 ng·h/mL. It also gave a half-life ([1]; human, plasma, po, 200 mg, subject 1005, first dose 200 mg oral, read-out: Half-life (converted)) of 86.9 h, a Tmax ([1]; human, plasma, po, 200 mg, subject 1005, first dose 200 mg oral, read-out: Tmax) of 8 h and a Vd/F [1, 8] of 2210 L. The k el [1, 8] was 2.22e-06 s⁻¹, the Cmax [1, 9] was 90.1 ng/mL and the AUC(0-t) [1, 9] was 3730 ng·h/mL. The half-life ([1]; human, plasma, po, 200 mg, subject 1007, first dose 200 mg oral, read-out: Half-life (converted)) was 50.2 h, the Tmax ([1]; human, plasma, po, 200 mg, subject 1007, first dose 200 mg oral, read-out: Tmax) was 6 h and the Vd/F [1, 9] was 2880 L. It also gave a k el [1, 9] of 3.89e-06 s⁻¹, a Cmax [1, 10] of 144 ng/mL and an AUC(0-t) [1, 10] of 5850 ng·h/mL. It also gave a half-life ([1]; human, plasma, po, 200 mg, subject 2006, first dose 200 mg oral, read-out: Half-life (converted)) of 52.4 h, a Tmax ([1]; human, plasma, po, 200 mg, subject 2006, first dose 200 mg oral, read-out: Tmax) of 4 h and a Vd/F [1, 10] of 1870 L. The k el [1, 10] was 3.61e-06 s⁻¹, the Cmax [1, 11] was 44.7 ng/mL and the AUC(0-t) [1, 11] was 2060 ng·h/mL. The half-life ([1]; human, plasma, po, 200 mg, subject 2008, first dose 200 mg oral, read-out: Half-life (converted)) was 87.5 h, the Tmax ([1]; human, plasma, po, 200 mg, subject 2008, first dose 200 mg oral, read-out: Tmax) was 8 h and the Vd/F [1, 11] was 6560 L. The k el [1, 11] was 2.22e-06 s⁻¹, the CL/F ([1]; subject 1001, first dose 200 mg oral) was 42.5 L/h and the CL/F ([1]; subject 1002, first dose 200 mg oral) was 16.1 L/h. For the same compound, the CL/F ([1]; subject 1003, first dose 200 mg oral) was 20.3 L/h, the CL/F ([1]; subject 1004, first dose 200 mg oral) was 245 L/h and the “Cmax and AUC of subject 1004 compared to others” value ([1]; subject 1004 relative to the other seven subjects) was 6% to 25. For the same compound, the CL/F ([1]; subject 1005, first dose 200 mg oral) was 17.6 L/h, the CL/F ([1]; subject 1007, first dose 200 mg oral) was 39.8 L/h and the CL/F ([1]; subject 2006, first dose 200 mg oral) was 24.8 L/h. The CL/F ([1]; subject 2008, first dose 200 mg oral) was 52.0 L/h, the “accumulation with the current regimen” value ([1]; trough levels days 8 and 15, 200 mg weekly) was “no significant accumulation” and the IC50 (human Akt (Akt-3)) was 65 nM.
